Measurements reported in US20080026076A1 (priority 2003, published 2008).

Columns and labels:
ERK1/2 = ERK1/2 signaling status in left ventricle, immunoblot; assay type: in vivo, rat; details: AAC rats fed supplemental quercetin
Description: (§1) Determination of ERK1/2 and Akt signaling status (FIGS. 4A & 4B). All extraction procedures were performed at 4° C. […] After homogenization, the samples were sonicated twice on ice and centrifuged at 11,000×g for 10 min. at 4° C. Supernatants were recovered and stored at −80° C. for subsequent immunoblotting. Protein concentration of whole heart cell lysate was determined using a Bio-Rad Protein assay (Bio-Rad, Hercules, Calif.) with bovine serum albumin (BSA) as a standard.

[1] = Trial: body mass, heart rate, adverse effects; assay type: in vivo, human
Description: A 14-day washout period separated the two phases. Subjects were randomly assigned to begin either the quercetin or the placebo phase first. […] Clinic visits were conducted on overnight-fasted subjects in the morning hours at the beginning and end of the placebo and quercetin supplementation phases. Subjects were instructed not to exercise prior to their appointments. […] Blood pressure was a primary outcome variable and was obtained at each clinic visit by a trained observer using an Omron random zero automatic blood pressure analyzer as previously described (35). Each participant sat quietly for 5-10 minutes, after which their arm was placed at heart level and blood pressure and pulse rate were determined at least three times in 3-5 minute intervals. If blood pressure varied among these determinations by more than 10 mmHg, three additional trials were performed. The accumulated measurements then were averaged to determine overall systolic and diastolic pressure and pulse rate for each subject. Nearly 1000 patients were interviewed and screened for eligibility. […] From this initial screening, 204 were evaluated in more detail at a subsequent clinic visit to determine if all inclusion/exclusion criteria were met, and that blood pressure was within the study limits (FIG. 6). […]

Akt = Akt signaling status in left ventricle, immunoblot; assay type: in vivo, rat; details: AAC rats fed supplemental quercetin
Description: as §1

[2] = Ferric reducing antioxidant power (FRAP) of plasma; assay type: in vivo, human; details: for FRAP, Endpoint: end of quercetin phase
Description: (§2) Blood samples were collected after blood pressure was measured. Blood was collected by antecubital venipuncture from fasting subjects into sodium heparin tubes (Becton Dickinson, N.J., USA). Collected blood was immediately stored on ice and centrifuged within 10 minutes at 4° C. for 15 minutes at 2500 g as previously described (36).
FRAP measures the ability of an antioxidant to reduce Fe^3+ to Fe^2+ (40), and is an index of plasma antioxidant potential in hypertensive patients (41-44). This assay was done as previously described (39). Briefly, plasma samples were diluted 1:2 with phosphate buffered saline, followed by addition of a reagent solution containing 0.8 mmol/L 2,4,6-tri-(2-pyridyl)-s-tirazine and 1.7 mmol/l FeCl3.6-H2O. Samples were then incubated at 37° C. for 15 min and the absorbance at 593 nm was recorded in a plate reader (Molecular Devices, Spectramax 340 pc).

8-isoprostane F2α = experiment: Urinary 8-isoprostane F2α, enzyme-linked immunoassay; assay type: in vivo, human; details: for Urinary Isoprostane, Endpoint: end of quercetin phase
Description: During each patient visit whole blood (˜50 μL) was obtained from a digit puncture to determine blood lipids (LDL, VLDL, HDL, total cholesterol) and glucose using a clinical Cholestech LDX blood analyzer (37). Prior to each patient visit, first morning urine was collected, brought to the laboratory, and stored at −80° C. for later analysis of isoprostane concentrations. Urine 8-isoprostane F2α is a measure of lipid peroxidation and can be used to estimate oxidative stress in humans (45-47). Quantification of 8-isoprostane F2α (also known as 8-epi-PGF2α or 8-iso-PGF2α) in urine samples was performed using a competitive enzyme-linked immunoassay kit (Cayman Chemical, Ann Arbor, Mich.) according to the manufacturers instructions.

[3] = test system: mice with surgically induced abdominal aortic constriction; details: oral, 5 day, 120 mg/kg/day (Wang et al., 1999); cited from earlier work
[4] = Plasma quercetin in trial subjects (HPLC); assay type: in vivo; details: human, oral
Description: as §2
Supernatants then were extracted with ethyl acetate and injected into an HPLC Discovery C18 column. The mobile phase was 1% acetic acid (solvent A) and 95% acetonitrile in 1% phosphoric acid (solvent B). The gradient elution was solvent B from 10 to 85% in 20 minutes, holding for 5 minutes before returning back to 10% for conditioning. A visible detector with 365 nm was used.

[5] = Plasma antioxidant reserve (PAR); assay type: in vivo, human; details: for PAR, Endpoint: end of quercetin phase
Description: Blood samples were collected after blood pressure was measured. Blood was collected by antecubital venipuncture from fasting subjects into sodium heparin tubes (Becton Dickinson, N.J., USA). Collected blood was immediately stored on ice and centrifuged within 10 minutes at 4° C. for 15 minutes at 2500 g as previously described (36). […] Ex-vivo amplification of isoprostanes was accomplished by introducing a source of free radicals (3-morpholinosydnonimine, SIN-1) into the blood plasma to induce oxidation of lipoproteins (39). Uric acid, a major water soluble antioxidant present in plasma, was removed using uricase prior to introduction of SIN-1 so that any protection provided by other antioxidants could be measured. Therefore, PAR measures the non-urate antioxidant capacity, or antioxidant power, of blood.

[6] = test system: NE precontracted aortic segments; experiment: Vascular reactivity in segments of aorta, wire-type myograph; assay type: in vivo, rat
Description: Animals are anesthetized, the heart and aorta excised, and vascular reactivity is assessed in segments of aorta using a wire-type myograph.

[7] = both groups of hypertensive subjects
[8] = sham-operated Q-fed animals (n=10)

O=c1c(O)c(-c2ccc(O)c(O)c2)oc2cc(O)cc(O)c12 [quercetin, 3,5,7,3′,4′-pentahydroxyflavone]
activation of ERK1/2 (ERK1/2): reduced | adverse effects ([1]; 730 mg quercetin/day, 4 weeks, during the course of the study): No adverse effects | Heart rate ([1]; throughout the study (data not shown)): unchanged | activation of Akt (Akt): prevented | fasting plasma FRAP, quercetin supplementation vs. placebo [2, 7]: not altered | FRAP, Endpoint ([2]; prehypertensive (n=10), baseline 1080 ± 48): 1106 ± 61 µmol/L | FRAP, Endpoint ([2]; stage 1 hypertensive (n=8), baseline 1056 ± 59): 1152 ± 69 µmol/L | fasting urinary 8-isoprostane F2α concentration, quercetin supplementation vs. placebo (8-isoprostane F2α; [7]): not altered | Urinary Isoprostane, Endpoint (8-isoprostane F2α; prehypertensive (n=10), baseline 518 ± 55): 520 ± 75 ng/g creatine | Urinary Isoprostane, Endpoint (8-isoprostane F2α; stage 1 hypertensive (n=8), baseline 822 ± 249): 549 ± 59 ng/g creatine | cardiac hypertrophy [3]: prevented cardiac hypertrophy | concentration at 1 week after end of supplementation [4]: 190 ± 9 ng/mL | concentration at 4 weeks ([4]; 730 mg/day for 4 weeks, fasted, 235±35 after placebo): 480 ± 64 ng/mL | fasting plasma PAR, quercetin supplementation vs. placebo [5, 7]: not altered | PAR, Endpoint ([5]; prehypertensive (n=10), baseline 279 ± 48): 266 ± 32 pg/mL | PAR, Endpoint ([5]; stage 1 hypertensive (n=8), baseline 258 ± 55): 281 ± 74 pg/mL | maximal ACh-evoked relaxation ([6]; AAC-Q rats (n=9), untreated AAC 30±3): 44±3% | SNP-evoked relaxation ([6]; AAC-Q rats (n=9), untreated AAC 56±3): 71±4% | SNP-evoked relaxation [6, 8]: 71±5% | maximal ACh-evoked relaxation [6, 8]: 38±4%
